Converted amounts (≈) assume the structure as drawn. Where two headings read alike, the source gives them in different places. Starred links: 1 amine or outer side, 2 acyl side, 3 side chain; linkers in the order of their positions; H or OH if unused. Positions of bridges follow the written chain, without caps; N, C: chain ends. Residues, ends and D or L forms follow the SMILES beside them. *: point of attachment. C20 diacid = O=C(O)CCCCCCCCCCCCCCCCCCC(=O)*; γGlu = O=C(O)[C@H](CCC(=O)[*:2])N[*:1]
Key:
[1] = target: T1, human amylin receptor (amylin 3(a) receptor: human calcitonin receptor + RAMP-3) (Homo sapiens, UniProt O60896+P30988); experiment: Assay (II)a functional CRE-luciferase assay, human amylin receptor; assay type: cell-based; conditions: Table 2; BHK amylin 3(a)-receptor/CRE-luc cells
T1 construct: expressed in transfected cells; host or cells: BHK570
T1 sequence (P30988 25-474): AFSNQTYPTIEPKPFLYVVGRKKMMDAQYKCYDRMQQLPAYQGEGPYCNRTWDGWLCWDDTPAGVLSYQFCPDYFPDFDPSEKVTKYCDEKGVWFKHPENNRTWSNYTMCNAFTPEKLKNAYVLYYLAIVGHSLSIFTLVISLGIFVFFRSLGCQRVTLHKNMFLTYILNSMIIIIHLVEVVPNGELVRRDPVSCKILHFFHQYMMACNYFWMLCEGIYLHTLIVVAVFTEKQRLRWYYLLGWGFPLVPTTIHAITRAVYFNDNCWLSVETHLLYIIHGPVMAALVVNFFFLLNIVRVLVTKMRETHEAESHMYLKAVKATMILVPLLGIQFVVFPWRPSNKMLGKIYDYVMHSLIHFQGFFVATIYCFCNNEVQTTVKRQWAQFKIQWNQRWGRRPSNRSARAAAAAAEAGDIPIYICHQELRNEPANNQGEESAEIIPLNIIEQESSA
T1 sequence (O60896 24-148 partner): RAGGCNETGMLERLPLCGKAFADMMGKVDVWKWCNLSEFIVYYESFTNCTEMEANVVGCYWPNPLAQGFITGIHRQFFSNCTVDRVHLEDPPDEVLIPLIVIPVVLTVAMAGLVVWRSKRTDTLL

[2] = target: T2, human calcitonin receptor (Homo sapiens, UniProt P30988); experiment: Assay (II)a functional CRE-luciferase assay, human calcitonin receptor; assay type: cell-based; conditions: Table 7; human calcitonin (CTa) receptor
T2 construct: expressed in transfected cells; host or cells: BHK570
T2 sequence (P30988 25-474): T1 sequence (P30988 25-474)

[3] = Assay (III) ThT fibrillation assay for physical stability; assay type: physicochemical
How it was run: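 Freshly prepared formulations, pH-adjusted, with 1 μM ThT; four or eight replicates incubated at 37 °C under 960 rpm orbital shaking. Fluorescence (ex 444/em 485 nm) read every 20 min; […]. Peptide concentration measured by RP-HPLC before and after the run.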

[4] = Assay (IV) determination of solubility; assay type: physicochemical
How it was run: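 Polypeptide in water (~500 nmol/ml stock) was mixed 1:1 with 100 mM buffers from pH 3.0 to 8.0 (glycylglycine pH 3.0–5.0; bistrispropane pH 6.0–8.0). After 18 hours at room temperature, samples were centrifuged and the polypeptide remaining in solution was quantified by HPLC.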

[5] = bistrispropane buffer, pH 6, pH 6.0, read-out: Solubility pH 6.0
[6] = bistrispropane buffer, pH 6.5, pH 6.5, read-out: Solubility pH 6.5
[7] = bistrispropane buffer, pH 7, pH 7.0, 18 hours at room temperature, Table 3, read-out: Solubility pH 7.0
[8] = bistrispropane buffer, pH 7, pH 7.0, Table 8, read-out: Solubility pH 7.0
[9] = bistrispropane buffer, pH 7, pH 7.0, read-out: Solubility pH 7.0
[10] = bistrispropane buffer, pH 7.5, pH 7.5, read-out: Solubility pH 7.5
[11] = bistrispropane buffer, pH 8, pH 8.0, read-out: Solubility pH 8.0
[12] = glycylglycine buffer, pH 3, pH 3.0, read-out: Solubility pH 3.0
[13] = glycylglycine buffer, pH 4, pH 4.0, 18 hours at room temperature, Table 2, read-out: Solubility pH 4.0
[14] = glycylglycine buffer, pH 4, pH 4.0, read-out: Solubility pH 4.0
[15] = glycylglycine buffer, pH 5, pH 5.0, read-out: Solubility pH 5.0
[16] = bistrispropane buffer, pH 7, pH 7.0, Table 9, read-out: Solubility pH 7.0
[17] = bistrispropane buffer, pH 7.5, pH 7.5, Table 9, read-out: Solubility pH 7.5

EC50 [1] [pM]	EC50 [2] [pM]	ThT pH 4.0 lag time ([3]; Table 8) [h]	ThT pH 4.0 lag time ([3]; ThT fibrillation assay) [h]	ThT pH 4.0 lag time (h) ([3]; ThT fibrillation assay)	solubility at 18 h [4, 5] [µM]	solubility at 18 h [4, 6] [µM]	solubility at 18 h [4, 7] [µM]	solubility at 18 h [4, 8] [µM]	solubility at 18 h [4, 9] [µM]	solubility at 18 h [4, 10] [µM]	solubility at 18 h [4, 11] [µM]	solubility at 18 h [4, 12] [µM]	solubility at 18 h [4, 13] [µM]	solubility at 18 h [4, 14] [µM]	solubility at 18 h [4, 15] [µM]	ThT pH 4.0 lag time ([3]; Table 9) [h]	solubility at 18 h [4, 16] [µM]	solubility at 18 h [4, 17] [µM]	Compound
208	160	26	26	26	> 200	152 (≈ 670 µg/mL)	> 200	> 200	> 200	> 200	> 200	> 200	> 200	> 200	> 200	–	–	–	CC[C@H](C)[C@H](NC(=O)[C@@H]1CCCN1C(=O)CNC(=O)[C@H](Cc1ccccc1)NC(=O)[C@H](CC(N)=O)NC(=O)[C@H](CC(N)=O)NC(=O)[C@H](CO)NC(=O)[C@H](CO)NC(=O)[C@H](Cc1c[nH]cn1)NC(=O)[C@H](Cc1c[nH]cn1)NC(=O)[C@H](CC(C)C)NC(=O)[C@H](Cc1ccccc1)NC(=O)[C@H](CCC(=O)O)NC(=O)[C@H](C)NC(=O)[C@H](CC(C)C)NC(=O)[C@H](CCCNC(=N)N)NC(=O)[C@H](CCC(N)=O)NC(=O)[C@@H](NC(=O)[C@H](C)NC(=O)[C@@H]1CSSC[C@H](NC(=O)CNC(=O)CC[C@H](NC(=O)CCCCCCCCCCCCCCCCCCC(=O)O)C(=O)O)C(=O)N[C@@H](CC(N)=O)C(=O)N[C@@H]([C@@H](C)O)C(=O)N[C@@H](C)C(=O)N[C@@H]([C@@H](C)O)C(=O)N1)[C@@H](C)O)C(=O)N[C@@H](CC(C)C)C(=O)N1CCC[C@H]1C(=O)N1CCC[C@H]1C(=O)N[C@H](C(=O)N[C@@H](CC(N)=O)C(=O)N[C@H](C(=O)NCC(=O)N[C@@H](CO)C(=O)N[C@@H](Cc1c[nH]cn1)C(=O)N[C@H](C(=O)N[C@@H](Cc1ccc(O)cc1)C(N)=O)[C@@H](C)O)C(C)C)[C@@H](C)O [Example 105, N-alpha-[(S)-4-Carboxy-4-(19-carboxynonadecanoylamino)butyryl]-[Gly1,Glu14,His17,His35]-pramlintide] ({C20 diacid-γGlu}-GCNTATCATQRLAEFLHHSSNNFGPILPPTNVGSHTY-NH2; disulfide 2-7 (inferred); C-terminus assumed)
91	45	>45	>45	>45	> 200	> 200	> 200	> 200	> 200	> 200	> 200	> 200	> 200	> 200	> 200	>45	> 200	> 200	CC[C@H](C)[C@H](NC(=O)[C@@H]1CCCN1C(=O)CNC(=O)[C@H](Cc1ccccc1)NC(=O)[C@H](CC(N)=O)NC(=O)[C@H](CCC(N)=O)NC(=O)[C@H](CO)NC(=O)[C@H](CO)NC(=O)[C@H](Cc1c[nH]cn1)NC(=O)[C@H](Cc1c[nH]cn1)NC(=O)[C@H](CC(C)C)NC(=O)[C@H](Cc1ccccc1)NC(=O)[C@H](CCC(=O)O)NC(=O)[C@H](C)NC(=O)[C@H](CC(C)C)NC(=O)[C@H](CCCNC(=N)N)NC(=O)[C@H](CCC(N)=O)NC(=O)[C@@H](NC(=O)[C@H](C)NC(=O)[C@@H]1CSSC[C@H](NC(=O)[C@H](CCCCN)NC(=O)CC[C@H](NC(=O)CCCCCCCCCCCCCCCCCCC(=O)O)C(=O)O)C(=O)N[C@@H](CC(N)=O)C(=O)N[C@@H]([C@@H](C)O)C(=O)N[C@@H](C)C(=O)N[C@@H]([C@@H](C)O)C(=O)N1)[C@@H](C)O)C(=O)N[C@@H](CC(C)C)C(=O)N1CCC[C@H]1C(=O)N1CCC[C@H]1C(=O)N[C@H](C(=O)N[C@@H](CC(N)=O)C(=O)N[C@H](C(=O)NCC(=O)N[C@@H](CO)C(=O)N[C@@H](CCC(N)=O)C(=O)N[C@H](C(=O)N1CCC[C@H]1C(N)=O)[C@@H](C)O)C(C)C)[C@@H](C)O [Example 136, N-alpha-[(S)-4-Carboxy-4-(19-carboxynonadecanoylamino)butyryl]-[Glu14,His17,Gln21,Gln35,Pro37]-pramlintide] ({C20 diacid-γGlu}-KCNTATCATQRLAEFLHHSSQNFGPILPPTNVGSQTP-NH2; disulfide 2-7 (inferred))
306	669	–	–	10.6	21	20	–	–	52	> 200	> 200	> 200	> 200	> 200	> 200	–	–	–	{C20 diacid-γGlu}-SSGSSGHCNTATCATQRLAEFLHHSSNNFGPILPPTNVGSNTY-NH2 (disulfide 8-13 (inferred); C-terminus assumed) [Example 44, N-alpha-[(S)-4-Carboxy-4-(19-carboxynonadecanoylamino)butyryl]-Ser-Ser-Gly-Ser-Ser-Gly-[His1,Glu14,His17]-pramlintide]
80.5	83	>45	>45	>45	178 (≈ 776 µg/mL)	> 200	> 200	> 200	> 200	> 200	> 200	> 200	> 200	> 200	> 200	>45	> 200	> 200	CC[C@H](C)[C@H](NC(=O)[C@@H]1CCCN1C(=O)CNC(=O)[C@H](Cc1ccccc1)NC(=O)[C@H](CC(N)=O)NC(=O)[C@H](CC(N)=O)NC(=O)[C@H](CO)NC(=O)[C@H](CO)NC(=O)[C@H](Cc1c[nH]cn1)NC(=O)[C@H](Cc1c[nH]cn1)NC(=O)[C@H](CC(C)C)NC(=O)[C@H](Cc1ccccc1)NC(=O)[C@H](CCC(=O)O)NC(=O)[C@H](C)NC(=O)[C@H](CC(C)C)NC(=O)[C@H](CCCCN)NC(=O)[C@H](CCC(N)=O)NC(=O)[C@@H](NC(=O)[C@H](C)NC(=O)[C@@H]1CSSC[C@H](NC(=O)[C@H](CCCCN)NC(=O)CC[C@H](NC(=O)CCCCCCCCCCCCCCCCCCC(=O)O)C(=O)O)C(=O)N[C@@H](CC(N)=O)C(=O)N[C@@H]([C@@H](C)O)C(=O)N[C@@H](C)C(=O)N[C@@H]([C@@H](C)O)C(=O)N1)[C@@H](C)O)C(=O)N[C@@H](CC(C)C)C(=O)N1CCC[C@H]1C(=O)N1CCC[C@H]1C(=O)N[C@H](C(=O)N[C@@H](CC(N)=O)C(=O)N[C@H](C(=O)NCC(=O)N[C@@H](CO)C(=O)N[C@@H](CC(N)=O)C(=O)N[C@H](C(=O)N1CCC[C@H]1C(N)=O)[C@@H](C)O)C(C)C)[C@@H](C)O [Example 145, N-alpha-[(S)-4-Carboxy-4-(19-carboxynonadecanoylamino)butyryl]-[Lys11,Glu14,His17,Pro37]-pramlintide] ({C20 diacid-γGlu}-KCNTATCATQKLAEFLHHSSNNFGPILPPTNVGSNTP-NH2; disulfide 2-7 (inferred))
